Reference: the supplement of paper PMC10307832

What was measured:
Test in all cases: relative viability (nuclei count vs DMSO), 5 days (fraction); higher = more cells survive
201T = tested on: 201T
Procedure, shortened: (§1)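 Relative viability is defined as nuclei in treated wells over nuclei in vehicle wells. Duplicate plates were run and medians reported. Lung cancer cell lines in 1536-well plates were dosed by pin tool one day after seeding, with one drug or with a fixed anchor-drug dose plus five library-drug doses (not always all listed) in √10 steps, and nuclei were counted after 5 days.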

A-427 = tested on: A-427
Procedure, shortened: as §1

ABC-1 = tested on: ABC-1
Procedure, shortened: as §1

BEN = tested on: BEN
Procedure, shortened: as §1

CAL-12T = tested on: CAL-12T
Procedure, shortened: as §1

H3255 = tested on: H3255
Procedure, shortened: as §1

LC-2-ad = tested on: LC-2-ad
Procedure, shortened: as §1

LCLC-97TM1 = tested on: LCLC-97TM1
Procedure, shortened: as §1

NCI-H1650 = tested on: NCI-H1650
Procedure, shortened: as §1

NCI-H1651 = tested on: NCI-H1651
Procedure, shortened: as §1

NCI-H1792 = tested on: NCI-H1792
Procedure, shortened: as §1

NCI-H1915 = tested on: NCI-H1915
Procedure, shortened: as §1

NCI-H2023 = tested on: NCI-H2023
Procedure, shortened: as §1

NCI-H2087 = tested on: NCI-H2087
Procedure, shortened: as §1

NCI-H441 = tested on: NCI-H441
Procedure, shortened: as §1

NCI-H460 = tested on: NCI-H460
Procedure, shortened: as §1

NCI-H520 = tested on: NCI-H520
Procedure, shortened: as §1

NCI-H596 = tested on: NCI-H596
Procedure, shortened: as §1

NCI-H650 = tested on: NCI-H650
Procedure, shortened: as §1

NCI-H661 = tested on: NCI-H661
Procedure, shortened: as §1

NCI-H727 = tested on: NCI-H727
Procedure, shortened: as §1

PC-3 [JPC-3] = tested on: PC-3 [JPC-3]
Procedure, shortened: as §1

Structure (SMILES): CC1(C)CCC(c2ccc(Cl)cc2)=C(CN2CCN(c3ccc(C(=O)NS(=O)(=O)c4ccc(N[C@H](CCN5CCOCC5)CSc5ccccc5)c(S(=O)(=O)C(F)(F)F)c4)cc3)CC2)C1 [Navitoclax] + CC(C)C[C@H](NC(=O)[C@H](Cc1ccccc1)NC(=O)c1cnccn1)B(O)O [Bortezomib] (partner 0.002 µM)
- relative viability (201T; first compound 0.005 µM): 1.16
- relative viability (201T; first compound 0.01581 µM): 1.13
- relative viability (201T; first compound 0.05 µM): 1
- relative viability (201T; first compound 0.1581 µM): 1.1
- relative viability (201T; first compound 0.5 µM): 1.1
- relative viability (A-427; first compound 0.005 µM): 1.06
- relative viability (A-427; first compound 0.01581 µM): 1.04
- relative viability (A-427; first compound 0.05 µM): 0.819
- relative viability (A-427; first compound 0.1581 µM): 1.02
- relative viability (A-427; first compound 0.5 µM): 0.949
- relative viability (ABC-1; first compound 0.005 µM): 0.28
- relative viability (ABC-1; first compound 0.01581 µM): 0.286
- relative viability (ABC-1; first compound 0.05 µM): 0.265
- relative viability (ABC-1; first compound 0.1581 µM): 0.254
- relative viability (ABC-1; first compound 0.5 µM): 0.216
- relative viability (BEN; first compound 0.005 µM): 0.826
- relative viability (BEN; first compound 0.01581 µM): 0.807
- relative viability (BEN; first compound 0.05 µM): 0.664
- relative viability (BEN; first compound 0.1581 µM): 0.789
- relative viability (BEN; first compound 0.5 µM): 0.339
- relative viability (CAL-12T; first compound 0.005 µM): 0.887
- relative viability (CAL-12T; first compound 0.01581 µM): 0.711
- relative viability (CAL-12T; first compound 0.05 µM): 0.989
- relative viability (CAL-12T; first compound 0.1581 µM): 0.853
- relative viability (CAL-12T; first compound 0.5 µM): 0.941
- relative viability (H3255; first compound 0.005 µM): 0.849
- relative viability (H3255; first compound 0.01581 µM): 1.09
- relative viability (H3255; first compound 0.05 µM): 0.836
- relative viability (H3255; first compound 0.1581 µM): 0.692
- relative viability (H3255; first compound 0.5 µM): 0.632
- relative viability (LC-2-ad; first compound 0.005 µM): 0.988
- relative viability (LC-2-ad; first compound 0.01581 µM): 1.1
- relative viability (LC-2-ad; first compound 0.05 µM): 0.941
- relative viability (LC-2-ad; first compound 0.1581 µM): 1.01
- relative viability (LC-2-ad; first compound 0.5 µM): 1.06
- relative viability (LCLC-97TM1; first compound 0.005 µM): 0.696
- relative viability (LCLC-97TM1; first compound 0.01581 µM): 1.06
- relative viability (LCLC-97TM1; first compound 0.05 µM): 0.583
- relative viability (LCLC-97TM1; first compound 0.1581 µM): 0.6
- relative viability (LCLC-97TM1; first compound 0.5 µM): 0.513
- relative viability (NCI-H1650; first compound 0.005 µM): 0.183
- relative viability (NCI-H1650; first compound 0.01581 µM): 0.213
- relative viability (NCI-H1650; first compound 0.05 µM): 0.165
- relative viability (NCI-H1650; first compound 0.1581 µM): 0.191
- relative viability (NCI-H1650; first compound 0.5 µM): 0.163
- relative viability (NCI-H1651; first compound 0.005 µM): 0.918
- relative viability (NCI-H1651; first compound 0.01581 µM): 0.916
- relative viability (NCI-H1651; first compound 0.05 µM): 0.423
- relative viability (NCI-H1651; first compound 0.1581 µM): 0.943
- relative viability (NCI-H1651; first compound 0.5 µM): 0.957
- relative viability (NCI-H1792; first compound 0.005 µM): 0.976
- relative viability (NCI-H1792; first compound 0.01581 µM): 1.01
- relative viability (NCI-H1792; first compound 0.05 µM): 0.995
- relative viability (NCI-H1792; first compound 0.1581 µM): 0.964
- relative viability (NCI-H1792; first compound 0.5 µM): 0.934
- relative viability (NCI-H1915; first compound 0.005 µM): 0.969
- relative viability (NCI-H1915; first compound 0.01581 µM): 0.925
- relative viability (NCI-H1915; first compound 0.05 µM): 0.82
- relative viability (NCI-H1915; first compound 0.1581 µM): 0.865
- relative viability (NCI-H1915; first compound 0.5 µM): 0.929
- relative viability (NCI-H2023; first compound 0.005 µM): 1.06
- relative viability (NCI-H2023; first compound 0.01581 µM): 1.18
- relative viability (NCI-H2023; first compound 0.05 µM): 0.857
- relative viability (NCI-H2023; first compound 0.1581 µM): 0.906
- relative viability (NCI-H2023; first compound 0.5 µM): 0.938
- relative viability (NCI-H2087; first compound 0.005 µM): 0.905
- relative viability (NCI-H2087; first compound 0.01581 µM): 0.979
- relative viability (NCI-H2087; first compound 0.05 µM): 0.504
- relative viability (NCI-H2087; first compound 0.1581 µM): 0.612
- relative viability (NCI-H2087; first compound 0.5 µM): 0.772
- relative viability (NCI-H441; first compound 0.005 µM): 0.349
- relative viability (NCI-H441; first compound 0.01581 µM): 0.737
- relative viability (NCI-H441; first compound 0.05 µM): 0.379
- relative viability (NCI-H441; first compound 0.1581 µM): 0.424
- relative viability (NCI-H441; first compound 0.5 µM): 0.496
- relative viability (NCI-H460; first compound 0.005 µM): 1.1
- relative viability (NCI-H460; first compound 0.01581 µM): 1.16
- relative viability (NCI-H460; first compound 0.05 µM): 1.4
- relative viability (NCI-H460; first compound 0.1581 µM): 1.01
- relative viability (NCI-H460; first compound 0.5 µM): 0.983
- relative viability (NCI-H520; first compound 0.005 µM): 0.577
- relative viability (NCI-H520; first compound 0.01581 µM): 0.743
- relative viability (NCI-H520; first compound 0.05 µM): 0.869
- relative viability (NCI-H520; first compound 0.1581 µM): 0.6
- relative viability (NCI-H520; first compound 0.5 µM): 0.712
- relative viability (NCI-H596; first compound 0.005 µM): 1.22
- relative viability (NCI-H596; first compound 0.01581 µM): 0.81
- relative viability (NCI-H596; first compound 0.05 µM): 0.904
- relative viability (NCI-H596; first compound 0.1581 µM): 1.22
- relative viability (NCI-H596; first compound 0.5 µM): 0.914
- relative viability (NCI-H650; first compound 0.005 µM): 0.742
- relative viability (NCI-H650; first compound 0.01581 µM): 0.959
- relative viability (NCI-H650; first compound 0.05 µM): 0.817
- relative viability (NCI-H650; first compound 0.1581 µM): 0.767
- relative viability (NCI-H650; first compound 0.5 µM): 0.837
- relative viability (NCI-H661; first compound 0.005 µM): 0.844
- relative viability (NCI-H661; first compound 0.01581 µM): 0.873
- relative viability (NCI-H661; first compound 0.05 µM): 0.785
- relative viability (NCI-H661; first compound 0.1581 µM): 0.827
- relative viability (NCI-H661; first compound 0.5 µM): 0.668
- relative viability (NCI-H727; first compound 0.005 µM): 0.898
- relative viability (NCI-H727; first compound 0.01581 µM): 0.888
- relative viability (NCI-H727; first compound 0.1581 µM): 1.05
- relative viability (NCI-H727; first compound 0.5 µM): 0.767
- relative viability (PC-3 [JPC-3]; first compound 0.005 µM): 0.757
- relative viability (PC-3 [JPC-3]; first compound 0.01581 µM): 0.784
- relative viability (PC-3 [JPC-3]; first compound 0.05 µM): 0.732
- relative viability (PC-3 [JPC-3]; first compound 0.1581 µM): 0.874
- relative viability (PC-3 [JPC-3]; first compound 0.5 µM): 0.822
